These are literature values, as cited in US6509447B1, “G protein chimeras and methods of screening compounds” (Glaxo Welcome Inc., priority 1997, dated 2003).

As usually defined, the Kd is the equilibrium constant for the complex coming apart.

For this data set, the target named is T1, Ste2p (Saccharomyces cerevisiae, UniProt D6VTK4).
T1 sequence (D6VTK4 1-431): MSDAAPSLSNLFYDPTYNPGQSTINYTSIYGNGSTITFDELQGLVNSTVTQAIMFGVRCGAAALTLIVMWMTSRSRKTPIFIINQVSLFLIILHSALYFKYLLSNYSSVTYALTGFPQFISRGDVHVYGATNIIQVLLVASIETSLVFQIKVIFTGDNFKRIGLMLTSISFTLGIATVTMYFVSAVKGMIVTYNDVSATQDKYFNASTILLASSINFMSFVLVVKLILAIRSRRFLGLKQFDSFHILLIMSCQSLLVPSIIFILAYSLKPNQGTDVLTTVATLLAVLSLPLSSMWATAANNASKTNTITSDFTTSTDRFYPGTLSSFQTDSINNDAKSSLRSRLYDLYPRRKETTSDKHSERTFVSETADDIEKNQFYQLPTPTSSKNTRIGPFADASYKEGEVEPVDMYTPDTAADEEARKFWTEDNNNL
Conditions: literature reference (3); read-out: reported affinity of Ste2p for α-factor peptide (Kd); cited from earlier work.

On to α-factor, for which the dissociation constant (Kd) was 17 nM.
